ChEMBL document CHEMBL4177613, “Development of photoaffinity derivatives of the antitumor macrolide aplyronine A, a PPI-inducer between actin and tubulin” (Bioorg Med Chem, 2017)
pIC50: −log10 of the molar value. Activity calls are given as the source filed them. The rule behind the calls is not given here.

Key:
[1] = test system: HeLa S3; assay: Cytotoxicity against human HeLaS3 cells after 96 hrs by MTT assay; type: functional, cell-based; conditions: HeLa S3, 96 h
[2] = Binding affinity to rabbit skeletal muscle actin/porcine brain tubulin preincubated for 30 mins followed by UV irradiation of 0.8 mW for 15 mins measured after 30 mins by TAMRA azide-based fluorescence SDS-PAGE analysis
[3] = species: Sus scrofa; assay: Binding affinity to pig brain tubulin preincubated for 30 mins followed by UV irradiation of 0.8 mW for 15 mins measured after 30 mins by TAMRA azide-based fluorescence SDS-PAGE analysis
[4] = species: Oryctolagus cuniculus; assay: Inhibition of rabbit skeletal muscle F-actin polymerization at 3 uM after 1 hr by SDS-PAGE assay
[5] = species: Oryctolagus cuniculus; assay: Binding affinity to rabbit skeletal muscle actin preincubated for 60 mins followed by UV irradiation for 15 mins in presence of aplyronine A by SDS-PAGE analysis
[6] = Binding affinity to rabbit skeletal muscle actin/pig brain tubulin preincubated for 60 mins followed by UV irradiation for 15 mins in presence of aplyronine A by SDS-PAGE analysis
[7] = species: Oryctolagus cuniculus; assay: Binding affinity to rabbit skeletal muscle actin preincubated for 30 mins followed by UV irradiation of 0.8 mW for 15 mins measured after 30 mins by TAMRA azide-based fluorescence SDS-PAGE analysis

Row | SMILES | pIC50 [1] | Activity [2] | Activity [3] | inhibition [4] | Activity [5] | Activity [6] | Activity [7]
1 | COCC(C(=O)O[C@@H]1C/C=C/C=C/C(=O)O[C@H]([C@@H](C)[C@@H](O)[C@@H](C)CC[C@@H](OC(=O)[C@H](C)N(C)C)[C@H](C)[C@H](OC(C)=O)[C@H](C)CC=NOCC(=O)NCCCC[C@H](NC(=O)CCC(=O)NCCCOCCOCCOCCCNC(=O)c2ccc(C3(C(F)(F)F)N=N3)cc2)C(=O)NCCCOCCOCCOCCCNC(=O)CCCC[C@@H]2SC[C@@H]3NC(=O)N[C@@H]32)C/C=C/[C@H](OC)C[C@H](C)C/C=C(\C)[C@@H](OC)CC[C@@H](C)[C@@H](O)[C@@H]1C)N(C)C (stereo not given in full) | 9.27 | Active | Active |  |  |  | 
2 | COCC(C(=O)O[C@@H]1C/C=C/C=C/C(=O)O[C@H]([C@@H](C)[C@@H](O)[C@@H](C)CC[C@@H](OC(=O)[C@H](C)N(C)C)[C@H](C)[C@H](OC(C)=O)[C@H](C)CC=NOCC(=O)NCCCC[C@H](NC(=O)c2ccc(C3(C(F)(F)F)N=N3)cc2)C(=O)NCCCOCCOCCOCCCNC(=O)CCCC[C@@H]2SC[C@@H]3NC(=O)N[C@@H]32)C/C=C/[C@H](OC)C[C@H](C)C/C=C(\C)[C@@H](OC)CC[C@@H](C)[C@@H](O)[C@@H]1C)N(C)C (stereo not given in full) | 8.92 |  |  |  |  |  | 
3 | COCC(C(=O)O[C@@H]1C/C=C/C=C/C(=O)O[C@H]([C@@H](C)[C@@H](O)[C@@H](C)CC[C@@H](OC(=O)[C@H](C)N(C)C)[C@H](C)[C@H](OC(C)=O)[C@H](C)/C=C/N(C)C=O)C/C=C/[C@H](OC)C[C@H](C)C/C=C(\C)[C@@H](OC)CC[C@@H](C)[C@@H](O)[C@@H]1C)N(C)C (stereo not given in full) | 11.00 | inactive |  | Active |  |  | 
4 | COCC(C(=O)O[C@@H]1C/C=C/C=C/C(=O)O[C@H]([C@@H](C)[C@@H](O)[C@@H](C)CC[C@@H](OC(=O)[C@H](C)N(C)C)[C@H](C)[C@H](OC(C)=O)[C@H](C)CC=NOCC(=O)NCCCC[C@H](NC(=O)CCC(=O)NCCCOCCOCCOCCCNC(=O)c2ccc(C3(C(F)(F)F)N=N3)cc2)C(=O)NCCCCCCNC(=O)c2ccc(-c3c4ccc(N(C)C)cc4[o+]c4cc(N(C)C)ccc34)c(C(=O)[O-])c2)C/C=C/[C@H](OC)C[C@H](C)C/C=C(\C)[C@@H](OC)CC[C@@H](C)[C@@H](O)[C@@H]1C)N(C)C (stereo not given in full) | 7.55 |  |  |  | Active | inactive | 
5 | C#CCNC(=O)[C@H](CCCCNC(=O)CON=CC[C@@H](C)[C@@H](OC(C)=O)[C@@H](C)[C@@H](CC[C@H](C)[C@H](O)[C@H](C)[C@@H]1C/C=C/[C@H](OC)C[C@H](C)C/C=C(\C)[C@@H](OC)CC[C@@H](C)[C@@H](O)[C@H](C)[C@H](OC(=O)C(COC)N(C)C)C/C=C/C=C/C(=O)O1)OC(=O)[C@H](C)N(C)C)NC(=O)CCC(=O)NCCCOCCOCCOCCCNC(=O)c1ccc(C2(C(F)(F)F)N=N2)cc1 (stereo not given in full) | 8.92 | inactive | inactive | Active |  |  | Active
6 | C#CCNC(=O)[C@H](CCCCNC(=O)CON=CC[C@@H](C)[C@@H](OC(C)=O)[C@@H](C)[C@@H](CC[C@H](C)[C@H](O)[C@H](C)[C@@H]1C/C=C/[C@H](OC)C[C@H](C)C/C=C(\C)[C@@H](OC)CC[C@@H](C)[C@@H](O)[C@H](C)[C@H](OC(=O)C(COC)N(C)C)C/C=C/C=C/C(=O)O1)OC(=O)[C@H](C)N(C)C)NC(=O)c1ccc(C2(C(F)(F)F)N=N2)cc1 (stereo not given in full) | 9.12 |  |  |  |  |  | Active
7 | COCC(C(=O)O[C@@H]1C/C=C/C=C/C(=O)O[C@H]([C@@H](C)[C@@H](O)[C@@H](C)CC[C@@H](OC(=O)[C@H](C)N(C)C)[C@H](C)[C@H](OC(C)=O)[C@H](C)CC=NOCC(=O)NCCCC[C@H](NC(=O)c2ccc(C3(C(F)(F)F)N=N3)cc2)C(=O)NCCCCCCNC(=O)c2ccc(-c3c4ccc(N(C)C)cc4[o+]c4cc(N(C)C)ccc34)c(C(=O)[O-])c2)C/C=C/[C@H](OC)C[C@H](C)C/C=C(\C)[C@@H](OC)CC[C@@H](C)[C@@H](O)[C@@H]1C)N(C)C (stereo not given in full) | 7.89 |  |  |  | Active | inactive | 
